Reference: publication PMC9230136 (Pharmaceutics, 2022)
Read-outs that look alike come from different tables or passages of the source.

Columns and labels:
A549 [1] = assay: Antiproliferative assay (resazurin, 72 h); format: cell-based, human; conditions: Homo sapiens, A549, Table 1, mean ± SE
Outline: (§1)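 Resazurin read-out (3–4 h, fluorescence ex 535 nm/em 600 nm) after 72 h of compound exposure at 37 °C, 5% CO2. Media: RPMI-1640 for HT-29, DMEM for the other three lines, each plus 10% FBS. Top concentration 10 μM with fivefold steps, in triplicate.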

HT-29 = assay: Antiproliferative assay (resazurin, 72 h); format: cell-based, human; conditions: Homo sapiens, HT-29; Table 1; mean ± SE; 72 h
Outline: as §1

HeLa [2] = assay: Antiproliferative assay (resazurin, 72 h); format: cell-based, human; conditions: Homo sapiens, HeLa, Table 1, mean ± SE
Outline: as §1

Jurkat = assay: Antiproliferative assay (resazurin, 72 h); format: cell-based, human; conditions: Homo sapiens, Jurkat; Table 1; mean ± SE; 72 h
Outline: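 Compounds dissolved in DMSO as 10 mM stocks were applied to seeded Jurkat cells using 5-fold serial dilutions from 10 μM, with each condition run in triplicate. Following 72 h incubation, 10 μL of 100 μg/mL resazurin was added for 3–4 h, and fluorescence was measured at 535 nm excitation and 600 nm emission.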

MDA-MB-231 = assay: Antiproliferative assay (resazurin, 72 h); format: cell-based, human; conditions: for IC50: Homo sapiens, MDA-MB-231, Table 1, mean ± SE, 72 h
Outline: as §1

[3] = tested on: A549, MDA-MB-231, HeLa, HT-29 and Jurkat cancer cell lines; assay: Antiproliferative activity over the panel of cancer cell lines; format: cell-based, human
Procedure: Colon adenocarcinoma (HT-29) and T-cell leukemia (Jurkat) cells were grown in RPMI-1640 medium (Gibco, Milano, Italy). Promyelocytic leukemia cells (HL-60), non-small cell lung carcinoma (A549), cervix carcinoma (HeLa) and breast adenocarcinoma (MDA-MB-231) cells were grown in DMEM medium (Gibco, Milano, Italy). Both media were supplemented with 115 units/mL of penicillin G (Gibco, Milano, Italy), 115 μg/mL of streptomycin (Invitrogen, Milano, Italy) and 10% fetal bovine serum (Invitrogen, Milano, Italy). All the cell lines used were purchased from the American Type Culture Collection (ATCC, Manassas, VA, USA). Stock solutions (10 mM) of the compounds were obtained by dissolving them in DMSO.
The cells were seeded in 96-well plates at the appropriate density for each cell line. After 24 h, the cells were treated by performing serial 5-fold dilutions of the tested compounds starting from a concentration of 10 μM. All experimental conditions were tested in triplicate for statistical analysis. The plates were incubated for 72 h at 37 °C in a humidified 5% CO2 atmosphere. At the end of the incubation period, 10 μL of 100 μg/mL resazurin solution was added to each well; then, the plate was re-incubated for 3–4 h. The fluorescence of the wells in each plate was monitored using a Spark 10 M spectrophotometer (Tecan Group Ltd., Mannedorf, Switzerland) with a 535 nm excitation wavelength and a 600 nm emission wavelength.

Bovine brain tubulin [4] = assay: Inhibition of tubulin polymerization; format: biochemical; conditions: for IC50: tubulin at 10 μM, read-out: Tubulin Assembly IC50 ± SD
Procedure: (§2) Bovine brain tubulin was purified as described previously. To evaluate the effects of the compounds on tubulin assembly in vitro [35], varying concentrations were preincubated with 10 μM tubulin in 0.8 M monosodium glutamate (pH 6.6) at 30 °C and the reaction mixtures then cooled to 0 °C. After addition of GTP, the mixtures were transferred to 0 °C cuvettes in Beckman Coulter (Brea, CA, USA) DU-7400/DU-7500 recording spectrophotometers equipped with electronic temperature controllers and warmed to 30 °C, and the assembly of tubulin was observed turbidimetrically. […] Inhibition of colchicine binding to tubulin was measured as described before, except that the reaction mixtures contained 0.5 μM tubulin and 5 μM each of [^3H]colchicine and test compound. Only one DEAE-cellulose filter was used per sample, and filtration was by gravity.

Bovine brain tubulin [5] = assay: Inhibition of [3H]colchicine binding to tubulin; conditions: tubulin 0.5 µM, [3H]colchicine 5 µM, compound 5 µM
Procedure: as §2

A549 [6] = conditions: cited from earlier work
HeLa [7] = conditions: cited from earlier work
tubulin = conditions: cited from earlier work
[8] = Homo sapiens, all five lines, read-out: IC50 values against all five lines
[9] = Homo sapiens, range over the five tumor lines, read-out: IC50 values, range over the cell lines
[10] = read-out: IC50 (compared with 8u on A549)

Row | IC50 (A549 [1]) [nM] | IC50 (HT-29) [nM] | IC50 (HeLa [2]) [nM] | IC50 (Jurkat) [nM] | IC50 (MDA-MB-231) [nM] | IC50 [3, 8] [nM] | IC50 [3, 9] [nM] | IC50 (Bovine brain tubulin [4]) [nM] | Colchicine Binding % Inhibition ± SD (Bovine brain tubulin [5]) [%] | melting point [°C] | SMILES | IC50 (A549 [6]; [10]) [nM] | IC50 (HeLa [7]) [nM] | also measured
1 | 660 ± 30 | 170 ± 20 | 110 ± 10 | 780 ± 90 | 300 ± 20 | < 1000 | 110 to 780 | 1000 ± 200 | 19 ± 05 | 190 to 192 | COc1cc(Nc2cc(C)nc3nc(NCc4ccc5c(c4)OCO5)nn23)cc(OC)c1OC [Compound 7y, N^2-(Benzo[d][1,3]dioxol-5-ylmethyl)-5-methyl-N^7-(3,4,5-trimethoxyphenyl)-[1,2,4]triazolo [1,5-a]pyrimidine-2,7-diamine] |  |  | fold increase in activity vs 7i ([3]; all five cell lines): 6–28 fold; fold less active than CA-4, tubulin polymerization (Bovine brain tubulin [4]): 1.5 fold
2 |  |  |  |  |  |  |  |  |  |  | CO[C@H]1C(=O)[C@]2(C)[C@@H](OC)C[C@H]3OC[C@@]3(OC(C)=O)[C@H]2[C@H](OC(=O)c2ccccc2)[C@]2(O)C[C@H](OC(=O)[C@H](O)[C@@H](NC(=O)OC(C)(C)C)c3ccccc3)C(C)=C1C2(C)C [cabazitaxel] | 15 |  | 
3 |  |  |  |  |  |  |  |  |  |  | COc1ccc(-c2c(C(C)=O)c(C)nc3nc(-c4cc(OC)c(OC)c(OC)c4)nn23)cc1[N+](=O)[O-] [Compound 5] |  | 10000 | IC50 (A549 [6]; read-out: IC50 A549): 16000 nM; IC50 (tubulin; read-out: IC50 antitubulin activity): 9.9 µM
4 |  |  |  |  |  |  |  |  |  |  | COc1cc(-c2nc3nc(C)c(C(C)=O)c(-c4ccc([N+](=O)[O-])cc4)n3n2)cc(OC)c1OC [Compound 4] |  | 750 | IC50 (A549 [6]; read-out: IC50 A549): 1020 nM; inhibition of tubulin assembly (tubulin; at 10 μM): 40%
5 |  |  |  |  |  |  |  |  |  |  | CC(=O)O[C@H]1C(=O)[C@@]2(C)[C@H]([C@H](OC(=O)c3ccccc3)[C@]3(O)C[C@H](OC(=O)[C@H](O)[C@@H](NC(=O)c4ccccc4)c4ccccc4)C(C)=C1C3(C)C)[C@]1(OC(C)=O)CO[C@@H]1C[C@@H]2O [paclitaxel] | 3.5 |  | 
6 |  |  |  |  |  |  |  |  |  |  | CC(=O)O[C@@]12CO[C@@H]1C[C@H](O)[C@@]1(C)C(=O)[C@H](O)C3=C(C)[C@@H](OC(=O)[C@H](O)[C@@H](NC(=O)OC(C)(C)C)c4ccccc4)C[C@@](O)([C@@H](OC(=O)c4ccccc4)[C@H]21)C3(C)C [docetaxel] | 19.5 |  | 
7 | 420 ± 70 | 110 ± 20 | 60 ± 10 | 430 ± 1 | 301 ± 40 | < 1000 | 60 to 427 | 660 ± 100 | 27 ± 3 | 146 to 148 | COc1cc(Nc2cc(C)nc3nc(NCc4ccc(C)cc4)nn23)cc(OC)c1OC [Compound 7p, 5-Methyl-N2-(4-methylbenzyl)-N7-(3,4,5-trimethoxyphenyl)-[1,2,4]triazolo [1,5-a]pyrimidine-2,7-diamine] |  |  | fold more potent than 7g ([3]; all cancer cell lines): 2–9 fold; fold less active than 7n ([3]; cell lines other than Jurkat): 2–4 fold; IC50 ([3]; range over the five tumor lines, read-out: IC50 values, range over the cell lines): 60 to 420 nM
8 |  |  |  |  |  |  |  |  |  |  | COc1ccc(-c2nc3nc(C)c(C(C)=O)c(-c4cc(OC)c(OC)c(OC)c4)n3n2)cc1O [Compound 6] |  | 60 | fold more powerful than CA-4, tubulin polymerization (tubulin): 3 fold
9 |  |  |  |  |  |  |  |  |  |  | COc1cccc2c1C(=O)c1c(O)c3c(c(O)c1C2=O)C[C@@](O)(C(=O)CO)C[C@@H]3O[C@H]1C[C@H](N)[C@H](O)[C@H](C)O1 [doxorubicin] | 11600 |  | 
10 | 110 ± 22 | 54 ± 10 | 31 ± 10 | 320 ± 19 | 190 ± 20 | < 1000 | 31 to 323 | 390 ± 60 | 30 ± 0.3 | 140 to 142 | COc1cc(Nc2cc(C)nc3nc(NCc4ccc(Cl)cc4)nn23)cc(OC)c1OC [Compound 7n, N^2-(4-Chlorobenzyl)-5-methyl-N^7-(3,4,5-trimethoxyphenyl)-[1,2,4]triazolo [1,5-a]pyrimidine-2,7-diamine] |  |  | fold reduction in activity vs 7l (MDA-MB-231; MDA-MB-231 cells): 3 fold; fold increase in antiproliferative activity vs 7l ([3]; four of the five cell lines): 17–60 fold
